Assay results reported in PubChem BioAssay (NCI).
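Cells were grown in 96-well plates and exposed to each compound for 48 hours at five concentrations; endpoints were interpolated linearly between bracketing concentrations, or set to the highest concentration if not reached. Abbreviation: GI50, concentration required for 50% inhibition of growth. At the TGI there is no net growth.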

Legend:
Experiment in all cases: DTP human tumour cell line panel, 48 h
[1] = tested on: HOP-92 NSCLC
[2] = tested on: HOP-62 NSCLC
[3] = tested on: PC-3 prostate
[4] = tested on: RXF 393 renal
[5] = tested on: OVCAR-5 ovarian
[6] = tested on: SNB-19 CNS
[7] = tested on: SK-MEL-28 melanoma
[8] = tested on: SR leukemia
[9] = tested on: SW-620 colon
[10] = tested on: NCI-H522 lung
[11] = tested on: CCRF-CEM leukemia
[12] = tested on: 786-0 renal
[13] = tested on: SK-MEL-5 melanoma
[14] = tested on: NCI/ADR-RES ovarian
[15] = tested on: UACC-62 melanoma
[16] = tested on: HCT-116 colon
[17] = tested on: BT-549 breast
[18] = tested on: UO-31 renal
[19] = tested on: MOLT-4 leukemia
[20] = tested on: HL-60(TB) leukemia
[21] = tested on: A498 renal
[22] = tested on: NCI-H23 lung
[23] = tested on: MDA-MB-231 breast
[24] = tested on: LOX IMVI melanoma
[25] = tested on: SN12C renal
[26] = tested on: EKVX NSCLC
[27] = tested on: K-562 leukemia
[28] = tested on: MCF7 breast
[29] = tested on: T-47D breast
[30] = tested on: SNB-75 CNS
[31] = tested on: IGROV1 ovarian
[32] = tested on: M14 melanoma
[33] = tested on: OVCAR-3 ovarian
[34] = tested on: TK-10 renal
[35] = tested on: SF-268 CNS
[36] = tested on: MDA-MB-435
[37] = tested on: NCI-H460 lung
[38] = tested on: HS 578T breast
[39] = tested on: NCI-H226 lung
[40] = tested on: COLO 205 colon
[41] = tested on: ACHN renal
[42] = tested on: OVCAR-8 ovarian
[43] = tested on: SF-295 CNS
[44] = tested on: SF-539 CNS
[45] = tested on: SK-MEL-2 melanoma
[46] = tested on: OVCAR-4 ovarian
[47] = tested on: DU-145 prostate
[48] = tested on: RPMI-8226 leukemia
[49] = tested on: KM12 colon
[50] = tested on: UACC-257 melanoma
[51] = tested on: HCC-2998 colon
[52] = tested on: CAKI-1 renal
[53] = tested on: A549 NSCLC

CCOC(=O)/C=C/C1=C(c2csc3ccccc23)c2ccccc2CC1
GI50 [1]: 48.6 µM | TGI [1]: > 100 µM | GI50 [2]: 41.6 µM | TGI [2]: > 100 µM | GI50 [3]: 19.8 µM | TGI [3]: > 100 µM | GI50 [4]: 33.7 µM | TGI [4]: > 100 µM | GI50 [5]: > 100 µM | TGI [5]: > 100 µM | GI50 [6]: 21.3 µM | TGI [6]: 80.9 µM | GI50 [7]: 32 µM | TGI [7]: > 100 µM | GI50 [8]: 15.4 µM | TGI [8]: 48.8 µM | GI50 [9]: 31.8 µM | TGI [9]: > 100 µM | GI50 [10]: 27.6 µM | TGI [10]: > 100 µM | GI50 [11]: 27.9 µM | TGI [11]: > 100 µM | GI50 [12]: 57 µM | TGI [12]: > 100 µM | GI50 [13]: 28.5 µM | TGI [13]: > 100 µM | GI50 [14]: 38.7 µM | TGI [14]: > 100 µM | GI50 [15]: 23.6 µM | TGI [15]: > 100 µM | GI50 [16]: 24.6 µM | TGI [16]: 70.9 µM | GI50 [17]: 99.3 µM | TGI [17]: > 100 µM | GI50 [18]: 58.1 µM | TGI [18]: > 100 µM | GI50 [19]: 32.2 µM | TGI [19]: > 100 µM | GI50 [20]: 32.4 µM | TGI [20]: > 100 µM | GI50 [21]: 55.4 µM | TGI [21]: > 100 µM | GI50 [22]: > 100 µM | TGI [22]: > 100 µM | GI50 [23]: 34.9 µM | TGI [23]: > 100 µM | GI50 [24]: 30.6 µM | TGI [24]: > 100 µM | GI50 [25]: 73.7 µM | TGI [25]: > 100 µM | GI50 [26]: 54.2 µM | TGI [26]: > 100 µM | GI50 [27]: 23.2 µM | TGI [27]: > 100 µM | GI50 [28]: 66.3 µM | TGI [28]: > 100 µM | GI50 [29]: 12.3 µM | TGI [29]: 55.5 µM | GI50 [30]: 15.2 µM | TGI [30]: 74.4 µM | GI50 [31]: 25.5 µM | TGI [31]: > 100 µM | GI50 [32]: 29.7 µM | TGI [32]: > 100 µM | GI50 [33]: 27.4 µM | TGI [33]: > 100 µM | GI50 [34]: 16.6 µM | TGI [34]: 61.7 µM | GI50 [35]: 28.2 µM | TGI [35]: 90 µM | GI50 [36]: 4.34 µM | TGI [36]: 25.7 µM | GI50 [37]: 37.5 µM | TGI [37]: > 100 µM | GI50 [38]: 52.7 µM | TGI [38]: > 100 µM | GI50 [39]: > 100 µM | TGI [39]: > 100 µM | GI50 [40]: 18.8 µM | TGI [40]: 53.9 µM | GI50 [41]: 30.2 µM | TGI [41]: > 100 µM | GI50 [42]: 79 µM | TGI [42]: > 100 µM | GI50 [43]: 18.4 µM | TGI [43]: 88.4 µM | GI50 [44]: > 100 µM | TGI [44]: > 100 µM | GI50 [45]: > 100 µM | TGI [45]: > 100 µM | GI50 [46]: 11.6 µM | TGI [46]: 48.8 µM | GI50 [47]: 54.9 µM | TGI [47]: > 100 µM | GI50 [48]: 22.6 µM | TGI [48]: > 100 µM | GI50 [49]: 12.7 µM | TGI [49]: 56.4 µM | GI50 [50]: 23.4 µM | TGI [50]: 82.6 µM | GI50 [51]: 55.5 µM | TGI [51]: > 100 µM | GI50 [52]: 14.8 µM | TGI [52]: 57.9 µM | GI50 [53]: 31.1 µM | TGI [53]: > 100 µM
